Reference: patent US6914064B2, “1,4-Disubstituted piperazine derivatives useful as uro-selective α1-adrenoceptor blockers” (Ranbaxy Laboratories Limited, priority 2000, dated 2005)

Tests used:
[1] = target: T1, α1A adrenoceptor (prostate) (Rattus norvegicus, UniProt P43140); test: In vitro functional study, antagonism of phenylepinephrine-induced contraction of prostate; assay type: biochemical; details: for Selectivity α1A/α1B / Selectivity α1A/α1D: functional assays, from pKB values; for Kb: prostate, phenylepinephrine, tested compound at 0.1, 1 and 10 mM, read-out: α Adrenoceptor Subtype (pKB) α1A (converted)
T1 construct: from tissue; host or cells: isolated prostate tissue
T1 sequence (P43140 1-466): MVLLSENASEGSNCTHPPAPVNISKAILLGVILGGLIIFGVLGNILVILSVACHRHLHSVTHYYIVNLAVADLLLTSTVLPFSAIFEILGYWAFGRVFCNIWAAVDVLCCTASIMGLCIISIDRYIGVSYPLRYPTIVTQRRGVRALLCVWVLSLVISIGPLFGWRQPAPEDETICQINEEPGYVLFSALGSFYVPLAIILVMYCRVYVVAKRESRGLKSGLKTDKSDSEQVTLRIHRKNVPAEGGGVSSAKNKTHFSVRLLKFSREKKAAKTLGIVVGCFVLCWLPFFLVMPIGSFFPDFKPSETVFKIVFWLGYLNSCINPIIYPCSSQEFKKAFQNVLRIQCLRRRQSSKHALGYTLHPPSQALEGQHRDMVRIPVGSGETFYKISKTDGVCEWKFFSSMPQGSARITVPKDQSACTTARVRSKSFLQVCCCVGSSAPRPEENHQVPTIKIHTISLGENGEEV
From the text: (§1) In order to study selectivity of action of these compounds towards different α-adrenoceptor subtypes, the ability of these compounds to antagonise α1-adrenoceptor agonist induced contractile response on aorta (α1Dprostate (α1A and spleen (α1B was studied. Aorta and spleen tissues were isolated from urethane anaesthetised (1.5 gm/kg) male wistar rats. Isolated tissues were mounted in organ bath containing Krebs Henseleit buffer of following composition (mM): NaCl 118; KCl 4.7; CaCl2 2.5; MgSO4. 7H2O 1.2; NaHCO3 25; KH2PO41.2; glucose 11.5. Buffer was maintained at 37° C. and aereated with a mixture of 95% O2 and 5% CO2. A resting tension of 2 g (aorta) or 1 g (spleen and prostate)was applied to tissues. Contractile response was monitored using a force displacement transducer and recorded on chart recorders. Tissues were allowed to equilibrate for 2 hours. At the end of equilibration period, concentration response curves to norepinephrine (aorta) and phenylepinephrine (spleen and prostate) were obtained in absence and presence of tested compound (at concentration of 0.1,1 and 10 mM). Antagonist affinity was calculated and expressed as pKB vales in Table II.

[2] = target: T2, α1B adrenoceptor (spleen) (Rattus norvegicus, UniProt P15823); test: In vitro functional study, antagonism of phenylepinephrine-induced contraction of spleen; assay type: biochemical; details: tested compound at 0.1, 1 and 10 mM, read-out: α Adrenoceptor Subtype (pKB) α1B (converted)
T2 construct: Isolated tissues were mounted in organ bath containing Krebs Henseleit buffer; from tissue; host or cells: isolated spleen of male wistar rats
T2 sequence (P15823 1-515): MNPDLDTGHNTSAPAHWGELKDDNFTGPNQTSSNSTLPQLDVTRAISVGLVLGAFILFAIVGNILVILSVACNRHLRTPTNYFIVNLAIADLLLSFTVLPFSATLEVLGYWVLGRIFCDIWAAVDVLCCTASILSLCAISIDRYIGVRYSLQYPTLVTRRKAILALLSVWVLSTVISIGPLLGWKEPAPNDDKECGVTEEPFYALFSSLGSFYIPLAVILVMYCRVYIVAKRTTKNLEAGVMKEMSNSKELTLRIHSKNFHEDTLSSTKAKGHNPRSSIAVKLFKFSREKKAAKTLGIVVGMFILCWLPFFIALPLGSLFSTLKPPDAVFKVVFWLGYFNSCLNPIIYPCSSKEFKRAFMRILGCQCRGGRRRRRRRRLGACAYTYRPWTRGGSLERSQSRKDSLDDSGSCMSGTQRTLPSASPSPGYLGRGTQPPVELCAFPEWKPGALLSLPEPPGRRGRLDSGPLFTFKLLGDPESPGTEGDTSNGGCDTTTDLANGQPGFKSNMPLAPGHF
From the text: as §1

[3] = target: T3, α1A adrenoceptor (Rattus norvegicus, UniProt P43140); test: Receptor binding assay, displacement of [3H]prazosin, rat submaxillary membranes; details: for Ki: [3H]prazosin displacement, rat submaxillary membranes, read-out: α1A (Rat submaxillary) Ki; for Selectivity α1B/α1A: ratio of Ki α1B (rat liver) / α1A (rat submaxillary)
T3 construct: from tissue; host or cells: rat submaxillary gland membranes
T3 sequence (P43140 1-466): T1 sequence (P43140 1-466)
Procedure, shortened: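 Rat submaxillary gland membranes (150-250 μg protein) incubated 1 h at 24-25° C in Tris HCl 50 mM, EDTA 5 mM, pH 7.4. Non-specific binding set with 300 nM prazosin; filtration then counting of bound radioactivity. IC50 and Kd from non-linear curve fitting.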

[4] = target: T4, α1B adrenoceptor (Rattus norvegicus, UniProt P15823); test: Receptor binding assay, displacement of [3H]prazosin, rat liver membranes; details: [3H]prazosin displacement, rat liver membranes; read-out: α1B (Rat liver) Ki
T4 construct: from tissue; host or cells: rat liver membranes
T4 sequence (P15823 1-515): T2 sequence (P15823 1-515)
Procedure, shortened: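 Rat liver membranes (150-250 μg protein) incubated with [3H]prazosin in 50 mM Tris HCl, 5 mM EDTA, pH 7.4, 1 h at 24-25° C; nonspecific binding with 300 nM prazosin. Bound radioactivity counted after filtration; IC50 by nonlinear fit, Ki via Cheng-Prusoff.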

Selectivity α1A/α1B [1] | Selectivity α1A/α1D [1] | Kb [1] | Kb [2] | melting point | Ki [3] | Selectivity α1B/α1A [3] | Ki [4] | SMILES
47 | 15 | 0.112 nM | 5.25 nM | 221.9 to 222.7 °C | 0.13 nM | 146 | 19 nM | CCOc1ccccc1N1CCN(CCCN2C(=O)C3CC=CCC3C2=O)CC1.Cl (centres unmarked) [Compound 11, 2-[3-{4-(2-Ethoxyphenyl)piperazin-1-yl}propyl]-3a,4,7,7a-tetrahydro-1H-isoindole-1,3(2H)-dione hydrochloride]
355 | 13 | 0.0398 nM | 14.1 nM | 193 to 194 °C | 0.24 nM | 117 | 28 nM | CCCOc1ccccc1N1CCN(CCCN2C(=O)C3CC=CCC3C2=O)CC1.Cl (centres unmarked) [Compound 24, 2-[3-{4-(2-Propoxyphenyl)piperazin-1-yl}propyl]-3a,4,7,7a-tetrahydro-1H-isoindole-1,3(2H)-dione hydrochloride]
41 | 4 | 0.537 nM | 21.9 nM | 184 to 185 °C | 0.8 nM | 91 | 73 nM | COc1ccccc1N1CCN(CCCN2C(=O)C3CC=CCC3C2=O)CC1.Cl (centres unmarked) [Compound 01, 2-[3-{4-(2-Methoxyphenyl)piperazin-1-yl}propyl]-3a,4,7,7a-tetrahydro-1H-isoindole-1,3(2H)-dione hydrochloride]
170 | 1 | 0.115 nM | 19.5 nM | 223 to 224 °C | 0.16 nM | 175 | 28 nM | CC(C)Oc1ccccc1N1CCN(CCCN2C(=O)C3CC=CCC3C2=O)CC1.Cl (centres unmarked) [Compound 23, 2-[3-{4-(2-Isopropoxyphenyl)piperazin-1-yl}propyl]-3a,4,7,7a-tetrahydro-1H-isoindole-1,3(2H)-dione hydrochloride]
